The numbers were not newly measured in patent US20040106141A1, “Methods and materials for examining pathways associated with glioblastoma progression” (The Regents of the University of California, priority 2002, published 2004), which cites them from elsewhere.

In the series the test system is SKMG-3 cells. As to conditions: unstimulated SKMG-3 cells.

For `CNc1cc2c(Nc3cccc(Br)c3)ncnc2cn1` [PD158780], the “constitutive phosphorylation of Erk” value is listed as “reduces”. In addition, the “constitutive phosphorylation of the receptor (EGFR)” value (GBM cell line with EGFR gene amplification) is on record as “reduces”.
